Measurements: patent publication US9975878B2, “Substituted triazine BMI-1 inhibitors” (PTC Therapeutics, Inc., priority 2013, dated 2018)

Each molecule was assayed on Bmi-1 protein (assay: Sandwich ELISA Assay: Bmi-1 protein level in HT-1080 cells treated with test compounds).
Format: cell-based
Description: Cell Seeding and Compound Treatment (Day 1):
HT-1080 cells were seeded at 8000 cells/well (50 μL) in 96-well tissue culture plates. After the cells became adherent (3-4 hours), 2× diluted stocks of test compounds in 50 μL DMEM containing 1% DMSO (final DMSO concentration was 0.5%) were added and the plates were incubated at 37° C. under 5% CO2 for 40-48 hours.
ELISA Plate First Antibody Preparation (Day 2):
The First Antibody (Millipore Mouse, monoclonal to mouse Bmi-1, clone F6, catalog #05-637) diluted to 2 μg/mL in PBS was added (100 μL) to each well of a Nunc MaxiSorp 96-well ELISA plate. The plate was covered with a plate seal and allowed to stand overnight.
Cell Lysate Preparation (Day 3):
Fresh Lysis buffer (1×) was prepared on the day of the assay as follows: 1 mM EDTA, 150 mM NaCl, 0.5% Triton-X 100, 10 mM NaF, 20 mM B-Glycerophosphate, 1 mM DTT (in PBS, pH 7.2-7.4) and HALT protease inhibitor cocktail (1×) (Pierce #78410).
Lysis Buffer (1×, 40 μL) was added to each well and the plate was shaken for 5-10 minutes on an orbital shaker to allow cell lysis, then diluent (1% BSA in PBS in 0.5% NP40) (100 μL) was added to each well.
A standard curve was prepared at the following Bmi-1 concentrations: 8000, 4000, 2000, 1000, 500, 250, 125 and 0 pg/mL. The Bmi-1 Recombinant Protein Standard (Novus Biologicals PCGF4 Recombinant Protein (P01), catalog # H00000648-P01) used to prepare the standard curve was stored at −80° C. On first thaw, the Recombinant Protein Standard was diluted to 10 μg/μL in Blocking Buffer (1% BSA in PBS; BSA: Fisher Scientific Catalog #1600-100). Aliquots were taken and refrozen at −80° C. The aliquots may be kept at 4° C. and reused after first thaw, but only within 1-2 weeks. The Recombinant Protein Standard contains a GST-fusion tag that appears at approximately 70 Kda on Western Blot.
The prepared ELISA plate was washed 3× with Wash Buffer (0.05% Tween-20 in PBS). The final wash was removed from the plate and the plate was blotted dry. Blocking Buffer (300 μL) (1% BSA in PBS) was added to each well. The plate was covered with a plate seal and incubated at room temperature for 1 hour. The blocked plate was washed 3× with Wash Buffer, then the final wash was removed and the plate was blotted dry. The previously prepared samples and standards were added (100 μL/well) and the plate was covered with a plate seal and incubated at 4° C. overnight.
The prepared ELISA plate was removed from incubation and allowed to stand at room temperature for 30 minutes, then washed and blotted dry. The Second Antibody (Cell Signaling Rabbit anti-Bmi-1, Cat# 2830) diluted to 1:600 in Blocking Buffer was added (100 μL) to each well, except as needed for background control wells. The plate was covered with a plate seal and incubated for 1.5 hrs at room temperature.
The ELISA plate was washed and blotted dry as previously described. The Third Antibody (Cell Signaling HRP conjugated anti-rabbit IgG (CellSignaling, Cat#:7074) diluted to 1:300 in Blocking Buffer was added (100 μL) to each well, except as needed for background control wells. The plate was incubated for 1 hr at room temperature.
The plate was washed and blotted dry, then a previously prepared TMB substrate (TMB substrate kit, Pierce catalog #34021) (prepared by mixing kit reagents 1:1) (100 μL) was added per well. The plate was incubated for 20-30 minutes at room temperature in the dark, then Stop Solution (2 M sulfuric acid in water) (50 μL) was added per well. The plates were read at OD450 (experimental) and OD570 (reference).
`CCc1nc2cc(F)ccc2n1-c1nc(N)nc(Nc2ccc(OC(F)F)cc2)n1` [Cpd 59, N-[4-(difluoromethoxy)phenyl]-6-(2-ethyl-5-fluoro-1H-benzimidazol-1-yl)-1,3,5-triazine-2,4-diamine] was tested, and the EC50 was 10 to 100 nM. `CCc1nc2cc(F)ccc2n1-c1nc(N)nc(Nc2ccc(OC(F)F)c(F)c2)n1` [Cpd 60, N-[4-(difluoromethoxy)-3-fluorophenyl]-6-(2-ethyl-5-fluoro-1H-benzimidazol-1-yl)-1,3,5-triazine-2,4-diamine] gave an EC50 of 10 to 100 nM. `Nc1nc(Nc2ccc(C(F)(F)F)cc2)nc(-c2c(C(F)(F)F)nc3ccccn23)n1` [Cpd 61, 6-[2-(trifluoromethyl)imidazo[1,2-a]pyridin-3-yl]-N-[4-(trifluoromethyl)phenyl]-1,3,5-triazine-2,4-diamine] showed an EC50 of 10 to 100 nM. Molecule `Nc1nc(Nc2ccc(C(F)(F)F)cc2)nc(-n2c(C3CC3)nc3ccc(F)cc32)n1` [Cpd 62, 6-(2-cyclopropyl-6-fluoro-1H-benzimidazol-1-yl)-N-[4-(trifluoromethyl)phenyl]-1,3,5-triazine-2,4-diamine] has an EC50 of 10 to 100 nM. In the case of `Nc1nc(Nc2ccc(OC(F)F)cc2)nc(-n2c(C3CC3)nc3ccc(F)cc32)n1` [Cpd 63, 6-(2-cyclopropyl-6-fluoro-1H-benzimidazol-1-yl)-N-[4-(difluoromethoxy)phenyl]-1,3,5-triazine-2,4-diamine], the EC50 is reported as 10 to 100 nM. In the case of `Nc1nc(Nc2ccc(OC(F)F)c(F)c2)nc(-n2c(C3CC3)nc3ccc(F)cc32)n1` [Cpd 64, 6-(2-cyclopropyl-6-fluoro-1H-benzimidazol-1-yl)-N-[4-(difluoromethoxy)-3-fluorophenyl]-1,3,5-triazine-2,4-diamine], the EC50 is reported as 10 to 100 nM. In the case of `Nc1nc(Nc2ccc(C(F)(F)F)cc2)nc(-n2c(C3CC3)nc3cc(F)ccc32)n1` [Cpd 65, 6-(2-cyclopropyl-5-fluoro-1H-benzimidazol-1-yl)-N-[4-(trifluoromethyl)phenyl]-1,3,5-triazine-2,4-diamine], the EC50 is reported as 100 to 3000 nM. `Nc1nc(Nc2ccc(OC(F)F)cc2)nc(-n2c(C3CC3)nc3cc(F)ccc32)n1` [Cpd 66, 6-(2-cyclopropyl-5-fluoro-1H-benzimidazol-1-yl)-N-[4-(difluoromethoxy)phenyl]-1,3,5-triazine-2,4-diamine] showed an EC50 of 10 to 100 nM. `Nc1nc(Nc2ccc(OC(F)F)c(F)c2)nc(-n2c(C3CC3)nc3cc(F)ccc32)n1` [Cpd 67, 6-(2-cyclopropyl-5-fluoro-1H-benzimidazol-1-yl)-N-[4-(difluoromethoxy)-3-fluorophenyl]-1,3,5-triazine-2,4-diamine] showed an EC50 of 100 to 3000 nM. `CCc1nc2c(F)cccc2n1-c1nc(N)nc(Nc2ccc(C(F)(F)F)cc2)n1` [Cpd 68, 6-(2-ethyl-4-fluoro-1H-benzimidazol-1-yl)-N-[4-(trifluoromethyl)phenyl]-1,3,5-triazine-2,4-diamine] gave an EC50 of 10 to 100 nM. `CCc1nc2c(F)cccc2n1-c1nc(N)nc(Nc2ccc(OC(F)F)cc2)n1` [Cpd 69, N-[4-(difluoromethoxy)phenyl]-6-(2-ethyl-4-fluoro-1H-benzimidazol-1-yl)-1,3,5-triazine-2,4-diamine] was tested, and the EC50 was 10 to 100 nM. Molecule `CCc1nc2c(F)cccc2n1-c1nc(N)nc(Nc2ccc(OC(F)F)c(F)c2)n1` [Cpd 70, N-[4-(difluoromethoxy)-3-fluorophenyl]-6-(2-ethyl-4-fluoro-1H-benzimidazol-1-yl)-1,3,5-triazine-2,4-diamine] has an EC50 of 10 to 100 nM. For `Nc1nc(Nc2ccc(C(F)(F)F)c(F)c2)nc(-c2c(C(F)(F)F)nc3ccccn23)n1` [Cpd 71, N-[3-fluoro-4-(trifluoromethyl)phenyl]-6-[2-(trifluoromethyl)imidazo[1,2-a]pyridin-3-yl]-1,3,5-triazine-2,4-diamine], the EC50 was 100 to 3000 nM. Work on `Nc1nc(Nc2ccc(OC(F)F)cc2)nc(-c2c(C(F)(F)F)nc3ccccn23)n1` [Cpd 72, N-[4-(difluoromethoxy)phenyl]-6-[2-(trifluoromethyl)imidazo[1,2-a]pyridin-3-yl]-1,3,5-triazine-2,4-diamine] yielded an EC50 of 10 to 100 nM. With `Nc1nc(Nc2ccc(OC(F)F)cc2)nc(-c2c(C(F)(F)F)nc3ccc(F)cn23)n1` [Cpd 73, N-[4-(difluoromethoxy)phenyl]-6-[6-fluoro-2-(trifluoromethyl)imidazo[1,2-a]pyridin-3-yl]-1,3,5-triazine-2,4-diamine] the EC50 was 10 to 100 nM. For `Cc1nc2cc(Cl)ccc2n1-c1nc(N)nc(Nc2ccc(C(F)(F)F)cc2)n1` [Cpd 74, 6-(5-chloro-2-methyl-1H-benzimidazol-1-yl)-N-[4-(trifluoromethyl)phenyl]-1,3,5-triazine-2,4-diamine], the EC50 was 100 to 3000 nM. Molecule `Cc1nc2ccc(Cl)cc2n1-c1nc(N)nc(Nc2ccc(C(F)(F)F)cc2)n1` [Cpd 75, 6-(6-chloro-2-methyl-1H-benzimidazol-1-yl)-N-[4-(trifluoromethyl)phenyl]-1,3,5-triazine-2,4-diamine] has an EC50 of 10 to 100 nM. Work on `Fc1ccc2nc(C3CC3)n(-c3ncnc(Nc4ccc(C(F)(F)F)cc4)n3)c2c1` [Cpd 76, 4-(2-cyclopropyl-6-fluoro-1H-benzimidazol-1-yl)-N-[4-(trifluoromethyl)phenyl]-1,3,5-triazin-2-amine] yielded an EC50 of 100 to 3000 nM. Molecule `Nc1nc(Nc2ccc(OC(F)F)cc2)nc(-n2c(C3CC3)nc3ncc(F)cc32)n1` [Cpd 77, 6-(2-cyclopropyl-6-fluoro-1H-imidazo[4,5-b]pyridin-1-yl)-N-[4-(difluoromethoxy)phenyl]-1,3,5-triazine-2,4-diamine] has an EC50 of 10 to 100 nM. For `Cc1nc2ncc(F)cc2n1-c1nc(N)nc(Nc2ccc(OC(F)F)cc2)n1` [Cpd 78, N-[4-(difluoromethoxy)phenyl]-6-(6-fluoro-2-methyl-1H-imidazo[4,5-b]pyridin-1-yl)-1,3,5-triazine-2,4-diamine], the EC50 was 100 to 3000 nM. Work on `CCc1nc2ncc(F)cc2n1-c1nc(N)nc(Nc2ccc(OC(F)F)cc2)n1` [Cpd 79, N-[4-(difluoromethoxy)phenyl]-6-(2-ethyl-6-fluoro-1H-imidazo[4,5-b]pyridin-1-yl)-1,3,5-triazine-2,4-diamine] yielded an EC50 of 10 to 100 nM. With `Cc1nc2cc(Cl)ccc2n1-c1nc(N)nc(Nc2ccc(OC(F)F)cc2)n1` [Cpd 80, 6-(5-chloro-2-methyl-1H-benzimidazol-1-yl)-N-[4-(difluoromethoxy)phenyl]-1,3,5-triazine-2,4-diamine] the EC50 was 100 to 3000 nM. Molecule `Cc1nc2ccc(Cl)cc2n1-c1nc(N)nc(Nc2ccc(OC(F)F)cc2)n1` [Cpd 81, 6-(6-chloro-2-methyl-1H-benzimidazol-1-yl)-N-[4-(difluoromethoxy)phenyl]-1,3,5-triazine-2,4-diamine] has an EC50 of 10 to 100 nM. `CCc1nc2ncc(F)cc2n1-c1nc(N)nc(Nc2ccc(C(F)(F)F)cc2)n1` [Cpd 82, 6-(2-ethyl-6-fluoro-1H-imidazo[4,5-b]pyridin-1-yl)-N-[4-(trifluoromethyl)phenyl]-1,3,5-triazine-2,4-diamine] gave an EC50 of 10 to 100 nM. `Nc1nc(Nc2ccc(OC(F)F)cc2)nc(-n2c(C3CC3)nc3cc(F)c(F)cc32)n1` [Cpd 83, 6-(2-cyclopropyl-5,6-difluoro-1H-benzimidazol-1-yl)-N-[4-(difluoromethoxy)phenyl]-1,3,5-triazine-2,4-diamine] was tested, and the EC50 was 10 to 100 nM. Molecule `CCc1nc2cc(F)c(F)cc2n1-c1nc(N)nc(Nc2ccc(OC(F)F)cc2)n1` [Cpd 84, N-[4-(difluoromethoxy)phenyl]-6-(2-ethyl-5,6-difluoro-1H-benzimidazol-1-yl)-1,3,5-triazine-2,4-diamine] has an EC50 of 10 to 100 nM. `Nc1nc(Nc2ccc(C(F)(F)F)cc2)nc(-n2c(C3CC3)nc3c(F)cccc32)n1` [Cpd 85, 6-(2-cyclopropyl-4-fluoro-1H-benzimidazol-1-yl)-N-[4-(trifluoromethyl)phenyl]-1,3,5-triazine-2,4-diamine] gave an EC50 of 10 to 100 nM.
